Measurements as given in patent publication US20210161842A1, “ABSCISIC ACID FOR THE TREATMENT OF SKIN DISEASES” (priority 2018, published 2021).

What was measured:
[1] = tested on: Tumoral necrosis factor alpha (TNF-α) in THP-1; test: TNF-α levels (ELISA) in THP-1 monocytes inflamed with IL-17 and LPS; format: cell-based, human; settings: IL-17 3 ng/ml + LPS 10 μg/ml 6 hours, then 24 hours; lysate 200, 20, 1 and 0.1 μg/ml (all doses); dexamethasone 10 μM
Experimental: (§1) In human monocytes line THP-1 (derived from patients with acute monocytic leukemia) inflammation was induces with IL-17 (3 ng/ml of culture) and lipopolysaccharide (LPS; 10 μg/ml) for 6 hours. After that different doses of the C. longa callus lysate were added (200 μg/ml, 20 μg/ml, 1 μg/ml and 0.1 μg/ml) for 24 hours. The assay was performed in 96-well plates. Tumoral necrosis factor alpha (TNF-α) and interleukine-8 (IL-8) levels were quantified by ELISA (fluorimetry, BD OpEIA, USA). One control was an assay with only the inflammatory agents at the same concentration to induce inflammation. Another control was were dexamethasone (10 μM)+Il-17/LPS.

[2] = tested on: lesional skin biopsies from atopic dermatitis patients; test: Inflammatory marker mRNA in full-thickness lesional skin biopsies of atopic dermatitis patients (ex vivo, RT-PCR); format: cell-based, human; settings: patient with atopic dermatitis plaque; 8 days at 37° C.; ABA 2 μL/ml; dexamethasone as control
Experimental: (§2) In skin biopsies of patients with plaque psoriasis and from patients with atopic dermatitis, it was determined the expression of several inflammatory markers (Interleukin 23A (IL-23A), C-X-C motif chemokine 10 (CXCL10), Interleukin 8 (IL-8), Interleukin 20 (IL-20), Intercellular Adhesion Molecule 1 (ICAM-1), LNC2, DEF-4, Keratin 16 (K-16), Interferon gamma (IFNg) and Interleukin 17A (IL-17A) using commercially available PCR tools for their determinations (RT-PCR by RNeasy Fibrous Tissue Mini kit and cDNA Archive kit, Sigma, ABlprism 7900HT and TaqMan probes). As a control, dexamethasone was used.
(§3) Full-thickness lesional skin biopsies from untreated atopic dermatitis and psoriasis patients were incubated in KBM medium supplemented with Ca2Cl for 8 days at 37° C., conditions that preserve human skin lesional in vitro. The different culture conditions were media, ABA (2 μL/ml (+)-(S)-cis,trans-abscisic acid). Medium was changed every 2-3 days. After incubation biopsies were cryopreserved in OCT at −80 until total mRNA was extracted with miRNeasy kit (Qiagen) according to manufacturer's protocol. RNA quality and quantity were checked using Nanodrop. RNA was conserved in RNase free water at −80° C. until analysis. RNA was converted to cDNA using the HighCapacity cDNA Reverse Transcription Kits (Applied Biosystems). Quantitative PCR was performed using TaqMan PreAmp Master Mix Kit (Applied Bioscience) and the TaqMan Gene Expression Master Mix (Applied Bioscience) following the manufacturers' protocols. Gene expression was normalized to the house-keeping gene Glyceraldehyde 3-phosphate dehydrogenase (GADPH) and normalized for each condition as 1,8e (Ct GADPH-Ct target gene) ×10000. […]
(§4) Patients from which biopsies were obtained included 5 psoriatic cases and 3 atopic dermatitis cases.

[3] = tested on: interleukine-8 (IL-8) in THP-1; test: IL-8 levels (ELISA) in THP-1 monocytes inflamed with IL-17 and LPS; format: cell-based, human; settings: IL-17 3 ng/ml + LPS 10 μg/ml 6 hours, then 24 hours; lysate 200, 20, 1 and 0.1 μg/ml (all doses); dexamethasone 10 μM
Experimental: as §1

[4] = tested on: lesional skin biopsies from psoriasis patients; test: Inflammatory marker mRNA in full-thickness lesional skin biopsies of psoriasis patients (ex vivo, RT-PCR); format: cell-based, human; settings: patient with psoriatic plaque; 8 days at 37° C.; ABA 2 μL/ml; dexamethasone as control
Experimental: as §2, §3
This cell culture lysate was a callus cell lysate and it was used at a final concentration of 20 μg/ml of media (KBM medium supplemented with Ca2Cl as in the assay with ABA alone). As positive or comparative control, dexamethasone (1 μM in the culture) was used.
as §4

[5] = tested on: Pseudomonas aeruginosa CECT 116; test: cfu in P. aeruginosa culture (bacteriostatic/bactericide effect); format: cell-based; settings: methyl jasmonate alone
Experimental: (§5) In this example several concentrations of ABA ((+)-(S)-cis,trans-abscisic acid (synonym of (S)-5-(1-hydroxy-2,6,6-trimethyl-4-oxo-2-cyclohexen-1-yl)-3-methyl-(2Z,4E)-pentadienoic acid)) (60 μg/ml, 30 μg/ml, 15 μg/ml, 5 μg/ml) were tested in a culture of P. acnes. Different amounts of the Morinda citrifolia cell lysate disclosed in Example 6 below were also tested in the same conditions (60%, 30%, 10%, 1%, 0.5%) by weight of cell lysate in the P. acnes culture. […] The same protocol was followed with a culture of S. aureus and with a culture of M. furfur. Data are shown in next Tables 1.1 to 1.6, where bacteriostatic and bactericide concentrations are listed. Underlined concentrations are the considered bacteriostatic or fungistatic amounts and that they avoid biofilm formation.
S. aureus, P. aeruginosa, P. acnes, and M. furfur subcultures were carried out from the stock by streaking onto determined medium and incubated according to the conditions specified for each of the microorganisms according to standard procedures and as indicated below: […]
Inventors also tested the effect of methyl jasmonate in P. acnes, S. aureus, M. furfur and P. aeruginosa. […] A bactericide effect was detected at 60% w/w.

[6] = tested on: Epidermophytum floccosum DSM 10709; test: cfu in E. floccosum culture (fungistatic effect); format: cell-based; settings: ABA 60 μg/ml; inoc. day 136000, control 587500
Experimental: (§6) Following the same scheme and procedure as in Examples 1-3 above, ABA 8((+)-(S)-cis,trans-abscisic acid)) and combinations of ABA with cell culture lysates or methyl jasmonate were tested on several microorganisms forming biofilms. As before, underlined concentrations are the considered bacteriostatic or fungistatic amounts and that they avoid biofilm formation.
(§7) Biofilm generation conditions and medium for the growth of the bacteria were those recommended by the supplier of each microorganism.

[7] = tested on: Epidermophytum floccosum DSM 10709; test: E. floccosum biofilm on glass coupons (and planktonic growth in suspension); format: cell-based; settings: ABA 60 μg/ml; inoc. day 96667, control 374333
Experimental: (§8) Generation of representative biofilms on borosilicate glass coupons (12.7 mm diameter and a thickness of 3.7 mm) by immersion of the coupons in a suspension of each microorganism with culture medium and the compounds of interest was tested. Evaluation of the antibiofilm properties and study of adhesion, growth and viability of biofilms on the coupons was analyzed by fluorescence staining technique and visualization of live/dead microbial was done by Laser Scanning Confocal Microscopy. The sampling and analysis of coupons to determine biofilm population density was recorded as colony-forming units (cfu) per coupon. In parallel, planktonic cells quantification in suspension was also determined.
(§9) For the determination of biofilm populations the microbial population adhered to the coupon surface were quantified by dilution and plating after biofilm disaggregation process by sonication and vortex cycles. The planktonic cells (suspension) were determined by dilution and plating. The controls were, respectively the cells on coupons or in suspension after 5 days without any treatment.
(§10) Following procedure as disclosed in Example 3, particular compositions comprising ABA ((+)-(S)-cis,trans-abscisic acid) and cell lysate of a plant cell culture of Morinda citrifolia were also tested in an assay on glass coupons that also served as example of biofilm formation on abiotic surfaces. […]

[8] = tested on: Candida albicans DSM 3454; test: C. albicans biofilm on glass coupons (and planktonic growth in suspension); format: cell-based; settings: ABA 60 μg/ml; inoc. day 184000, control 460000
Experimental: as §8, §9, §10

[9] = tested on: Streptococcus mutans DSM 20523; test: cfu in S. mutans culture (bacteriostatic/bactericide effect); format: cell-based; settings: inoc. day 200000, control 109000 × 10
Experimental: as §6, §7

[10] = tested on: Candida albicans DSM 3454; test: cfu in C. albicans culture (fungistatic/fungicide effect); format: cell-based; settings: ABA 60 μg/ml; inoc. day 264000, control 456500
Experimental: as §6, §7

[11] = tested on: Malassezia furfur ATCC 14521; test: cfu in M. furfur culture 24 hours after inoculum (fungistatic/fungicide effect); format: cell-based; settings: inoc. day 420000, control 1470000
Experimental: as §5
(§11) S. aureus, P. aeruginosa, P. acnes, and M. furfur subcultures were carried out from the stock by streaking onto determined medium and incubated according to the conditions specified for each of the microorganisms according to standard procedures and as indicated below:
(§12) Further it was tested a composition comprising 30% of Morinda citrifolia cell lysate and 30×10^−4% of abscisic acid ((+)-(S)-cis,trans-abscisic acid), glycerine and preservatives (q.s. 100%) in cultures of P. acnes, S. aureus, P. aeruginosa and M. furfur. The composition was used in the microbial culture at 5% and at 10% of the culture. […]

[12] = tested on: Propionibacterium acnes DSM 1897; test: cfu in P. acnes culture 24 hours after inoculum (bacteriostatic/bactericide effect); format: cell-based; settings: inoc. day 320000, control 1490000
Experimental: as §5, §11, §12

[13] = tested on: Staphylococcus aureus ATCC 6538; test: cfu in S. aureus culture 24 hours after inoculum (bacteriostatic/bactericide effect); format: cell-based; settings: ABA 60 μg/ml, inoc. day 520000, control 3310000
Experimental: as §5, §11, §12

Compound: C[C@@H]1C[C@H]2[C@@H]3CCC4=CC(=O)C=C[C@]4(C)[C@@]3(F)[C@@H](O)C[C@]2(C)[C@@]1(O)C(=O)CO [dexamethasone, reference compound]
- TNF-α levels in relation to inflamed cells [1]: −56%
- CCL13 mRNA, % of inhibition vs Media (normalized) [2]: 28.4%
- CCL17 mRNA, % of inhibition vs Media (normalized) [2]: −81.4%
- CCL18 mRNA, % of inhibition vs Media (normalized) [2]: −9.1%
- CCL26 mRNA, % of inhibition vs Media (normalized) [2]: −34.0%
- FLG mRNA, % of inhibition vs Media (normalized) [2]: 270.4%
- IFNg mRNA, % of inhibition vs Media (normalized) [2]: −100.0%
- IL-13 mRNA, % of inhibition vs Media (normalized) [2]: −100.0%
- K16 mRNA, % of inhibition vs Media (normalized) [2]: −39.8%
- LOR mRNA, % of inhibition vs Media (normalized) [2]: 189.2%
- IL-8 levels in relation to inflamed cells [3]: −33%
- CXCL10 mRNA, % of inhibition vs Media (normalized) [4]: 8.7%
- DEF-4 mRNA, % of inhibition vs Media (normalized) [4]: −15.7%
- ICAM-1 mRNA, % of inhibition vs Media (normalized) [4]: 17.1%
- IFNg mRNA, % of inhibition vs Media (normalized) [4]: 72.7%
- IL-8 mRNA, % of inhibition vs Media (normalized) [4]: −70.1%
- IL-17A mRNA, % of inhibition vs Media (normalized) [4]: 116.9%
- IL-20 mRNA, % of inhibition vs Media (normalized) [4]: 5.5%
- K-16 mRNA, % of inhibition vs Media (normalized) [4]: 27.8%
- LNC2 mRNA, % of inhibition vs Media (normalized) [4]: 96.3%

Compound: CC/C=C\CC1C(=O)CCC1CC(=O)OC (centres unmarked) [methyl jasmonate]
- percentage by weight in the culture media with bactericide effect [5]: 60 % w/w

Compound: (+)-(S)-cis,trans-abscisic acid [ABA]
- CFU [6]: 287200 CFU
- CFU on coupons [7]: 243667 CFU
- CFU on coupons [8]: 360000 CFU
- CFU ([9]; ABA 50 μg/ml): 289500 CFU
- CFU ([9]; ABA 60 μg/ml): 268000 CFU
- CCL13 mRNA, % of inhibition vs Media (normalized) [2]: −59.2%
- CCL17 mRNA, % of inhibition vs Media (normalized) [2]: −70.1%
- CCL18 mRNA, % of inhibition vs Media (normalized) [2]: −72.9%
- CCL26 mRNA, % of inhibition vs Media (normalized) [2]: −44.2%
- FLG mRNA, % of inhibition vs Media (normalized) [2]: 8.3%
- IFNg mRNA, % of inhibition vs Media (normalized) [2]: 9.2%
- IL-13 mRNA, % of inhibition vs Media (normalized) [2]: −79.0%
- K16 mRNA, % of inhibition vs Media (normalized) [2]: −69.1%
- LOR mRNA, % of inhibition vs Media (normalized) [2]: −45.5%
- CFU [10]: 367500 CFU
- CFU ([11]; ABA 30 μg/ml): 529000 CFU
- CFU ([11]; ABA 60(*) μg/ml, (*)considered fungicide): 256000 CFU
- CFU ([12]; ABA 30 μg/ml): 158001 CFU
- CFU ([12]; ABA 60(*) μg/ml, (*)concentration considered bactericide): 100000 CFU
- CFU [13]: 585000 CFU
- CXCL10 mRNA, % of inhibition vs Media (normalized) [4]: 140.1%
- DEF-4 mRNA, % of inhibition vs Media (normalized) [4]: −64.8%
- ICAM-1 mRNA, % of inhibition vs Media (normalized) [4]: −40.6%
- IFNg mRNA, % of inhibition vs Media (normalized) [4]: −10.7%
- IL-8 mRNA, % of inhibition vs Media (normalized) [4]: −71.5%
- IL-17A mRNA, % of inhibition vs Media (normalized) [4]: 9.3%
- IL-20 mRNA, % of inhibition vs Media (normalized) [4]: −27.8%
- K-16 mRNA, % of inhibition vs Media (normalized) [4]: 24.9%
- LNC2 mRNA, % of inhibition vs Media (normalized) [4]: −45.7%
